# According to the supplement of paper PMC13380429:
# Key:
# Conditions in all cases: 72 h
# Caco-2 [1] = assay: cell viability relative to DMSO; higher = less toxic
# Calu-3 [2] = assay: as above
# HepG2 [3] = assay: as above
# U2OS [4] = assay: as above
# Vero E6 [5] = assay: as above
# Caco-2 [6] = assay: relative viability EC50 (midpoint between 100% and the lowest measured viability); higher = less toxic
# U2OS [7] = assay: as above
# Vero E6 [8] = assay: as above
# Caco-2 [9] = assay: drug sensitivity score (DSS) for viability; higher = more toxic; extreme values may be limits of the assay
# Calu-3 [10] = assay: as above
# HepG2 [11] = assay: as above
# U2OS [12] = assay: as above
# Vero E6 [13] = assay: as above
# HepG2 [14] = assay: relative viability EC50 (midpoint between 100% and the lowest measured viability); higher = less toxic
# Calu-3 [15] = assay: as above
SMILES,cell viability (Caco-2 [1]; 1 nM) [%],cell viability (Caco-2 [1]; 10 nM) [%],cell viability (Caco-2 [1]; 100 nM) [%],cell viability (Caco-2 [1]; 1000 nM) [%],cell viability (Caco-2 [1]; 10000 nM) [%],cell viability (Calu-3 [2]; 1 nM) [%],cell viability (Calu-3 [2]; 10 nM) [%],cell viability (Calu-3 [2]; 100 nM) [%],cell viability (Calu-3 [2]; 1000 nM) [%],cell viability (Calu-3 [2]; 10000 nM) [%],cell viability (HepG2 [3]; 1 nM) [%],cell viability (HepG2 [3]; 10 nM) [%],cell viability (HepG2 [3]; 100 nM) [%],cell viability (HepG2 [3]; 1000 nM) [%],cell viability (HepG2 [3]; 10000 nM) [%],cell viability (U2OS [4]; 1 nM) [%],cell viability (U2OS [4]; 10 nM) [%],cell viability (U2OS [4]; 100 nM) [%],cell viability (U2OS [4]; 1000 nM) [%],cell viability (U2OS [4]; 10000 nM) [%],cell viability (Vero E6 [5]; 1 nM) [%],cell viability (Vero E6 [5]; 10 nM) [%],cell viability (Vero E6 [5]; 100 nM) [%],cell viability (Vero E6 [5]; 1000 nM) [%],cell viability (Vero E6 [5]; 10000 nM) [%],relative viability EC50 (Caco-2 [6]) [µM],relative viability EC50 (U2OS [7]) [µM],relative viability EC50 (Vero E6 [8]) [µM],drug sensitivity score (Caco-2 [9]),drug sensitivity score (Calu-3 [10]),drug sensitivity score (HepG2 [11]),drug sensitivity score (U2OS [12]),drug sensitivity score (Vero E6 [13]),relative viability EC50 (HepG2 [14]) [µM],relative viability EC50 (Calu-3 [15]) [µM]
CCc1cccc(CC)c1NC(=O)N1Cc2[nH]nc(NC(=O)c3ccc(N4CCN(C)CC4)cc3)c2C1,101,104,98.7,91.8,76.8,99.1,93.4,87.6,95,63,102,97.5,93.9,70.5,58.3,102,97.8,95.4,93.1,40,96.9,97.5,96.9,95.9,89.3,> 10,2.22,> 10,1.7,2.6,5.9,4.4,0,–,–
CCN(CCCc1ccccc1)CCCc1ccccc1 [alverine],101,93.6,99.2,97.8,94.8,–,–,–,–,–,107,87.3,96.7,98.1,76.2,102,100,101,97.8,102,97.2,93.4,100,97.9,100,> 10,> 10,> 10,0,–,1.1,0,0,> 10,–
Fc1ccc(Cn2c(NC3CCNCC3)nc3ccccc32)cc1 [tecastemizole],97.8,98.1,99,106,73.3,90.7,99.2,107,99.5,102,106,96.6,114,83.9,86.2,95,98,96.9,98.2,103,104,95.6,101,90,98.9,–,> 10,> 10,0.8,0,1.4,0,0,> 10,> 10
CON(C)C(=O)N1N=C(c2cc(F)ccc2F)S[C@@]1(CCCN)c1ccccc1 [filanesib],96.7,76.6,68.7,68.4,62.1,97,104,87.8,88.1,79.3,98,50,35.1,34.1,34.4,98.2,97.8,50.8,43.5,43.8,106,81.9,45.1,46.4,40.7,–,0.0424,0.0172,12.9,2,26.8,16.7,20.2,0.0056,> 10
O=C(CC1NCCCC1O)Cn1cnc2cc(Br)c(Cl)cc2c1=O (stereo not given) [halofuginone],95,107,81.7,28.6,25.1,–,–,–,–,–,102,88.9,24.1,2.9,0.6,98.9,101,98.1,32.2,1.9,99.7,100,42,11.4,0,0.183,0.678,0.0842,15.7,–,27.9,13.4,24.5,0.0439,–
CC[N+](CC)(CC)CCOc1ccc(/C=C/c2ccccc2)cc1 [MG-624],101,100,93.6,89.3,68.7,101,103,94.3,95.4,93.3,106,102,102,99.3,78.9,101,103,100,104,93,97.9,91,88.6,97.8,97.4,–,> 10,> 10,2.3,0,0.7,0,0,> 10,> 10
Cc1cccc(NC(=O)N[C@@H]2N=C(c3ccccc3)c3ccccc3N(C)C2=O)c1,105,106,100,110,97.2,–,–,–,–,–,111,109,110,106,92.5,–,–,–,–,–,111,102,109,101,93.6,> 10,–,> 10,0,–,0,–,0,> 10,–
CC(C)C[C@H](NC(=O)[C@@H](COC(C)(C)C)NC(=O)[C@H](Cc1ccc(O)cc1)NC(=O)[C@H](CO)NC(=O)[C@H](Cc1c[nH]c2ccccc12)NC(=O)[C@H](Cc1cnc[nH]1)NC(=O)[C@@H]1CCC(=O)N1)C(=O)N[C@@H](CCCNC(=N)N)C(=O)N1CCC[C@H]1C(=O)NNC(N)=O [goserelin-acetate],96.9,106,96.6,73.5,94.1,99.4,97.7,96.1,95.4,104,108,92.9,100,92.1,98.7,107,101,99.2,98.7,96.7,91,104,104,95.3,88.7,–,> 10,> 10,0.6,0,0,0,0.1,> 10,> 10
NCc1ccccc1CC(=O)N[C@@H]1C(=O)N2C(C(=O)O)=C(CSc3nnnn3CC(=O)O)CS[C@H]12 [ceforanide],88.4,92.9,102,99.3,100,–,–,–,–,–,99.5,106,109,98,106,96.3,97.3,100,102,103,97.3,98,96.8,93.8,103,> 10,> 10,> 10,0,–,0,0,0,> 10,–
O=C1[C@H](CC[C@H](O)c2ccc(F)cc2)[C@@H](c2ccc(O)cc2)N1c1ccc(F)cc1 [ezetimibe],97.6,98.1,93.3,95.9,88.9,–,–,–,–,–,103,96.6,100,90.8,88.8,95.9,101,95.8,104,91,99.6,106,100,100,107,> 10,> 10,> 10,0,–,0.2,0,0,> 10,–
O=C1NC(=O)C(=Cc2ccc(-c3ccc(F)cc3)o2)S1 (stereo in doubt),99.2,97.9,104,95.3,90.4,–,–,–,–,–,104,111,99.4,94,100,95.3,98.5,99.9,97.5,98.1,97.7,102,95.8,91.5,89.1,> 10,> 10,> 10,0,–,0,0,0.1,> 10,–
CC(C)(C)n1nc(-c2cccc3ccccc23)c2c(N)ncnc21 [1-naphthyl-PP1],104,93.1,98.6,101,86.1,91.6,104,98.4,100,73,115,115,95.6,105,82.8,100,96.4,109,94.4,75.6,107,99,103,110,78.6,> 10,> 10,> 10,0.1,1.1,0.2,1.7,0.4,> 10,–
COc1cc2ncnc(Nc3ccc(Cl)cc3F)c2cc1OC,91.1,91.6,88.6,81.5,62.4,96.2,103,90.2,61.1,22.6,99.1,107,89.4,109,87.1,97.3,98.5,99.4,96.3,84.1,100,99.2,87.7,66.8,48.6,–,> 10,0.434,4.7,9,0,0.7,7.4,> 10,0.903
C[C@]12CC[C@H]3[C@@H](CCC4=CC(=O)CC[C@@]43C)[C@@H]1CC[C@@H]2O [TESTOSTERONE],104,97.6,70.8,72.6,79.9,95.2,99.1,102,95.3,92.3,81,91.7,104,104,95.1,102,92.4,98.7,100,94.6,97.6,103,98.7,108,87.9,–,> 10,> 10,8.9,0,0,0,0,> 10,> 10
"Cl/C=C\C[N+]12CN3CN(CN(C3)C1)C2 [1-((Z)-3-chloroallyl)-1,3,5,7-tetraazaadamantan-1-ium]",96.3,97.9,91.5,97.4,95.8,–,–,–,–,–,102,104,109,102,97.7,94.5,99.8,94.7,102,97.5,99.5,99,99.4,95.5,104,> 10,> 10,> 10,0,–,0,0,0,> 10,–
